What all share (test): inhibition of tumour cell growth, NCI panel, 48 h
Experiment [1] deals with NCI-H460.
Experiment [2] has as its system SN12C.
Experiment [3] deals with HOP-62.
The subject of experiment [4] is COLO 205.
For experiment [5], the system named is HCT-116.
The subject of experiment [6] is A549.
Experiment [7] concerns MCF7.
Experiment [8] concerns HCC 2998.
Experiment [9] has as its system KM12.
Experiment [10] relates to OVCAR-8.
In experiment [11] the test system is NCI-H23.
Experiment [12] has as its system SK-MEL-28.
Experiment [13] deals with SF-268.
For experiment [14], the system named is MOLT-4.
Experiment [15] deals with U-251.
In experiment [16] the test system is HCT-15.
The subject of experiment [17] is SK-MEL-5.
Experiment [18] deals with BT-549.
In experiment [19] the test system is Malme-3M.

Molecules are shown by their SMILES.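 These data come from cells grown in 96-well plates and exposed to compound for 48 hours at five concentrations. Here, GI50 denotes the concentration required for 50% inhibition of growth.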 Calls of active or inactive are those of the source. Rule as the data show it: active = GI50 up to about 1.1 µM and inactive = higher. Some results are limits rather than exact numbers.

`COc1ccc2c(c1)C(=O)C1CCC(=O)N1C2c1ccc2c(c1)OCO2` (configuration not stated): the GI50 in [1] is 23.9 µM (inactive); in experiment [2], 12.1 µM (inactive); in experiment [3] it was 18.6 µM (inactive); in [4], 8.65 µM (inactive); in experiment [5], 3.67 µM (inactive); in experiment [6] it was 21 µM (inactive). In addition, the GI50 in experiment [7] was 4.83 µM (inactive); in experiment [8], 14.8 µM (inactive); in [9] it was 8.87 µM (inactive); in [10], 18.1 µM (inactive); in experiment [11], 15.1 µM (inactive); in [12] it was 11.3 µM (inactive). Moreover, the GI50 in experiment [13] was 13.6 µM (inactive); in [14], 2.74 µM (inactive); in experiment [15], 15.2 µM (inactive); in experiment [16] it was 12.2 µM; in [17], 11.4 µM (inactive); in experiment [18], 4.26 µM (inactive). In addition, the GI50 in experiment [19] was 4.89 µM (inactive).

`CN(C(=O)Cc1ccccc1)n1cnn(CC(=O)OC(C)(C)C)c1=S`: the GI50 in [1], in experiment [2], in [3], in [4], in experiment [5] and in experiment [6] was > 10 µM (inactive) throughout. In addition, the GI50 in experiment [7], in experiment [8], in experiment [9], in experiment [10], in [11] and in experiment [12] was > 10 µM (inactive) throughout. For the same compound, the GI50 in experiment [13] was > 10 µM (inactive); in experiment [14], > 10 µM (inactive); in [15] it was > 10 µM (inactive); in experiment [16] it was > 10 µM; in [17], > 10 µM (inactive); in [18], > 10 µM (inactive). In addition, the GI50 in experiment [19] was > 10 µM (inactive).

For `CCOC(=O)c1cc(C2CCN(CC(C)CC)C2=S)c(-c2cc(C)no2)[nH]1` (configuration not stated), the GI50 was > 100 µM (inactive) in [1]; > 100 µM (inactive) in [2]; > 100 µM (inactive) in experiment [3]; 37.4 µM (inactive) in experiment [4]; 88.9 µM (inactive) in [5]; 51.4 µM (inactive) in experiment [6]. The GI50 in experiment [7] was 89.3 µM (inactive); in experiment [8], > 100 µM (inactive); in [9] it was 49.2 µM (inactive); in experiment [10], 68.4 µM (inactive); in experiment [11], > 100 µM (inactive); in experiment [12], > 100 µM (inactive). Also, the GI50 was 69.3 µM (inactive) in experiment [13]; 44.1 µM (inactive) in experiment [14]; > 100 µM (inactive) in [15]; > 100 µM in experiment [16]; 48.4 µM (inactive) in experiment [17]; 83.9 µM (inactive) in experiment [18]. The GI50 in experiment [19] is > 100 µM (inactive).

For the compound `COC(=O)c1c(C)ccc2c(O)c3c(cc12)C(=O)c1c2c(cc(O)c1C3=O)C1(C)OC(C)(O2)C(O)C(N(C)C)C1O` (configuration not stated), the GI50 is 0.681 µM (active) in experiment [1]; 2.41 µM (inactive) in experiment [2]; 1.74 µM (inactive) in experiment [3]; 1.82 µM (inactive) in experiment [4]; 0.643 µM (active) in experiment [5]; 1.28 µM (inactive) in [6]. Moreover, the GI50 in experiment [7] is 1.28 µM (inactive); in experiment [8], 0.532 µM (active); in experiment [9], 1.42 µM (inactive); in experiment [10], 0.83 µM (active); in [11], 1.56 µM (inactive); in [12], 4.37 µM (inactive). Besides, the GI50 is 1.05 µM (active) in experiment [13]; 0.543 µM (active) in experiment [14]; 0.667 µM (active) in [15]; 1.46 µM in [16]; 8.38 µM (inactive) in [17]; 3.61 µM (inactive) in [18]. For the same compound, the GI50 in experiment [19] is 2.62 µM (inactive).

Take `Oc1ccc2ccccc2c1/C=N/Cc1c(O)ccc2ccccc12`: the GI50 is 28.1 µM (inactive) in experiment [1]; 32.8 µM (inactive) in experiment [2]; > 100 µM (inactive) in [3]; > 100 µM (inactive) in [4]; 28.3 µM (inactive) in [5]; 86.7 µM (inactive) in [6]. Besides, the GI50 in experiment [7] is 48.2 µM (inactive); in experiment [8] it was 42.2 µM (inactive); in experiment [9], 55.2 µM (inactive); in experiment [10], 34.5 µM (inactive); in experiment [11], 42.7 µM (inactive); in [12], > 100 µM (inactive). The GI50 in experiment [13] was 37.2 µM (inactive); in experiment [14], 13.2 µM (inactive); in experiment [15], 29 µM (inactive); in experiment [16] it was 29.4 µM; in [17], 71.9 µM (inactive); in experiment [18], 45.3 µM (inactive). Further, the GI50 in [19] is 43.2 µM (inactive).

On to `Cn1c(-c2cccs2)cc(-c2ccsc2)c1-c1ccsc1`, for which the GI50 in experiment [1] was > 100 µM (inactive); in experiment [2], > 100 µM (inactive); in experiment [3] it was > 100 µM (inactive); in [4], > 100 µM (inactive); in [5], 64.1 µM (inactive); in [6], > 100 µM (inactive). Moreover, the GI50 was 6.59 µM (inactive) in experiment [7]; > 100 µM (inactive) in [8]; > 100 µM (inactive) in experiment [9]; > 100 µM (inactive) in experiment [10]; 8.24 µM (inactive) in [11]; > 100 µM (inactive) in experiment [12]. For the same compound, the GI50 in experiment [13] is > 100 µM (inactive); in experiment [14], > 100 µM (inactive); in [15], > 100 µM (inactive); in experiment [16], > 100 µM; in [17] it was 36.1 µM (inactive); in [18], > 100 µM (inactive). The GI50 in [19] is > 100 µM (inactive).

In the case of `CCCOc1cc2c(cc1O)CC[C@@H]1[C@@H]2CC[C@]2(C)[C@@H](O)CC[C@@H]12`, the GI50 in experiment [1] was 1.62 µM (inactive); in experiment [2], 4.97 µM (inactive); in [3], 2.21 µM (inactive); in experiment [4], 12 µM (inactive); in experiment [5], 1.64 µM (inactive); in [6], 2.99 µM (inactive). The GI50 in experiment [7] was 2.18 µM (inactive); in experiment [8] it was 4.56 µM (inactive); in experiment [9], 4.15 µM (inactive); in experiment [10], 4.98 µM (inactive); in experiment [11], 3.37 µM (inactive); in [12], 8.26 µM (inactive). The GI50 in experiment [13] was 6.3 µM (inactive); in experiment [14] it was 0.946 µM (active); in experiment [15] it was 1.87 µM (inactive); in [16], 0.687 µM; in [17], 2.12 µM (inactive); in experiment [18], 0.524 µM (active). Besides, in experiment [19], the GI50 was 6.82 µM (inactive).

Take `COc1ccc2c(c1O)C13CCN(C)C(C2)C1CCC1(C3)OCCO1` (configuration not stated): the GI50 in experiment [1], in experiment [2], in experiment [3], in experiment [4], in experiment [5] and in experiment [6] was > 100 µM (inactive) each time. Also, the GI50 in experiment [7], in experiment [8], in experiment [9], in [10], in experiment [11] and in experiment [12] was > 100 µM (inactive) in each case. Besides, the GI50 in experiment [13] was > 100 µM (inactive); in experiment [14], > 100 µM (inactive); in experiment [15], > 100 µM (inactive); in experiment [16], > 100 µM; in experiment [17], > 100 µM (inactive); in experiment [18], > 100 µM (inactive). For the same compound, the GI50 in experiment [19] is > 100 µM (inactive).

(Values after ChEMBL document CHEMBL1201862, “PubChem BioAssay data set” (2004).)
